Measured values reported in PubChem BioAssay AID328 (DTP/NCI, 2004).
Values joined by “and” are separate entries in the source; they are usually repeats but may differ in a detail not shown here. Identical values can stand only once. Inconclusive results and toxic doses are left out.

System: BDF1 mice, P388 leukemia ip, median survival T/C
Experiment: NCI In Vivo Anticancer Drug Screen. Data for tumor model P388 Leukemia (intraperitoneal) in B6D2F1 (BDF1) mice
Conditions: endpoint: median survival time, higher = longer survival
Procedure, shortened: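 Mice carrying the transplantable tumour receive compound or vehicle. Survival is followed in each arm, and the treated measure is divided by the vehicle measure.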

[1] = dose: 25.0 mg/kg/injection, schedule: Q01DX009 (ip), vehicle: saline with Tween-80
[2] = dose: 50.0 mg/kg/injection, schedule: Q01DX009 (ip), vehicle: saline with Tween-80
[3] = dose: 50.0 mg/kg/injection, schedule: Q04DX003 (ip), vehicle: saline with Tween-80
[4] = dose: 100.0 mg/kg/injection, schedule: Q01DX009 (ip), vehicle: saline with Tween-80
[5] = dose: 100.0 mg/kg/injection, schedule: Q04DX003 (ip), vehicle: saline with Tween-80
[6] = dose: 200.0 mg/kg/injection, schedule: Q01DX009 (ip), vehicle: saline with Tween-80

CCOC(=O)C(=CNc1ccccc1OC)C(=O)OCC
T/C (dose: 1.56 mg/kg/injection, schedule: Q01DX009 (ip), vehicle: saline with Tween-80): 112 % of control | T/C (dose: 3.12 mg/kg/injection, schedule: Q01DX009 (ip), vehicle: saline with Tween-80): 104 % of control | T/C (dose: 6.25 mg/kg/injection, schedule: Q01DX009 (ip), vehicle: saline with Tween-80): 102 % of control | T/C (dose: 12.5 mg/kg/injection, schedule: Q01DX009 (ip), vehicle: saline with Tween-80): 102 % of control and 116 % of control | T/C [1]: 98 % of control and 123 % of control | T/C [2]: 100 % of control and 116 % of control and 121 % of control | T/C [3]: 99 % of control | T/C [4]: 102 % of control and 114 % of control | T/C [5]: 96 % of control | T/C [6]: 109 % of control | T/C (dose: 200.0 mg/kg/injection, schedule: Q04DX003 (ip), vehicle: saline with Tween-80): 96 % of control | T/C (dose: 400.0 mg/kg/injection, schedule: Q01DX009 (ip), vehicle: saline with Tween-80): 106 % of control | T/C (dose: 400.0 mg/kg/injection, schedule: Q04DX003 (ip), vehicle: saline with Tween-80): 96 % of control

COC(C/C=C\C=C\CC/C=C/CC(C)/C=C/C(=C\C(=O)O)CC(=O)O)/C(C)=C\C=C(/C)C(=O)O (stereo not given)
T/C (dose: 1.0 mg/kg/injection, schedule: Q04DX003 (ip), vehicle: saline): 100 % of control | T/C (dose: 2.0 mg/kg/injection, schedule: Q04DX003 (ip), vehicle: saline): 88 % of control | T/C (dose: 4.0 mg/kg/injection, schedule: Q01DX009 (ip), vehicle: saline): 87 % of control | T/C (dose: 4.0 mg/kg/injection, schedule: Q04DX003 (ip), vehicle: saline): 94 % of control | T/C (dose: 6.0 mg/kg/injection, schedule: Q04DX003 (ip), vehicle: saline): 100 % of control | T/C (dose: 8.0 mg/kg/injection, schedule: Q01DX009 (ip), vehicle: saline): 87 % of control | T/C (dose: 8.0 mg/kg/injection, schedule: Q04DX003 (ip), vehicle: saline): 108 % of control | T/C (dose: 16.0 mg/kg/injection, schedule: Q01DX009 (ip), vehicle: saline): 100 % of control | T/C (dose: 16.0 mg/kg/injection, schedule: Q04DX003 (ip), vehicle: saline): 95 % of control

COc1ccc2c3c1OC1CC(O)C=CC31CCN(C)C2 (stereo not given)
T/C (dose: 5.0 mg/kg/injection, schedule: Q01DX010 (ip), vehicle: carboxymethylcellulose (CMC)): 100 % of control

OC(COC(c1ccccc1)(c1ccccc1)c1ccccc1)C(O)CC1SCCS1 (stereo not given)
T/C (dose: 100.0 mg/kg/injection, schedule: Q01DX009 (ip), vehicle: saline sonified): 100 % of control | T/C (dose: 100.0 mg/kg/injection, schedule: Q04DX003 (ip), vehicle: saline sonified): 112 % of control | T/C (dose: 200.0 mg/kg/injection, schedule: Q01DX009 (ip), vehicle: saline sonified): 110 % of control | T/C (dose: 200.0 mg/kg/injection, schedule: Q04DX003 (ip), vehicle: saline sonified): 100 % of control | T/C (dose: 400.0 mg/kg/injection, schedule: Q01DX009 (ip), vehicle: saline sonified): 95 % of control | T/C (dose: 400.0 mg/kg/injection, schedule: Q04DX003 (ip), vehicle: saline sonified): 108 % of control

CCCCCCCCCCCCN1CCCC(O)C1 (stereo not given)
T/C [1]: 104 % of control | T/C [2]: 100 % of control | T/C [3]: 120 % of control | T/C [5]: 90 % of control

NC(N)=N/N=C/C(Cl)Cl
T/C (dose: 25.0 mg/kg/injection, schedule: Q01DX009 (ip), vehicle: saline): 95 % of control and 100 % of control | T/C (dose: 50.0 mg/kg/injection, schedule: Q01DX009 (ip), vehicle: saline): 104 % of control | T/C (dose: 100.0 mg/kg/injection, schedule: Q01DX009 (ip), vehicle: saline): 100 % of control and 109 % of control

N#Cc1cn(C2OC(CO)C(O)C2O)c2nc(Cl)nc(N)c12 (stereo not given)
T/C (dose: 6.25 mg/kg/injection, schedule: Q04DX003 (ip), vehicle: saline): 112 % of control | T/C (dose: 12.5 mg/kg/injection, schedule: Q04DX003 (ip), vehicle: saline): 166 % of control | T/C (dose: 25.0 mg/kg/injection, schedule: Q04DX003 (ip), vehicle: saline): 166 % of control

CC(=O)OCC1OC(=O)C(C)N(C)C(=O)CN(C)C(=O)C2C(=O)CC(C)N2C(=O)C(C(C)C)NC(=O)C1NC(=O)c1c2nc3c(C(=O)NC4C(=O)NC(C(C)C)C(=O)N5C(C)CC(OC(C)=O)C5C(=O)N(C)CC(=O)N(C)C(C(C)C)C(=O)OC4C)ccc(C)c3oc-2c(C)c(=O)c1N (stereo not given)
T/C (dose: 0.05 mg/kg/injection, schedule: Q01DX009 (ip), vehicle: saline with Tween-80): 154 % of control | T/C (dose: 0.1 mg/kg/injection, schedule: Q01DX009 (ip), vehicle: saline with Tween-80): 156 % of control | T/C (dose: 0.2 mg/kg/injection, schedule: Q01DX009 (ip), vehicle: saline with Tween-80): 189 % of control | T/C (dose: 0.4 mg/kg/injection, schedule: Q01DX001 (ip), vehicle: saline with Tween-80): 153 % of control | T/C (dose: 0.4 mg/kg/injection, schedule: Q01DX009 (ip), vehicle: saline with Tween-80): 213 % of control | T/C (dose: 0.6 mg/kg/injection, schedule: Q04DX003 (ip), vehicle: saline with Tween-80): 159 % of control | T/C (dose: 0.8 mg/kg/injection, schedule: Q01DX001 (ip), vehicle: saline with Tween-80): 159 % of control | T/C (dose: 0.8 mg/kg/injection, schedule: Q01DX009 (ip), vehicle: saline with Tween-80): 117 % of control | T/C (dose: 1.2 mg/kg/injection, schedule: Q04DX003 (ip), vehicle: saline with Tween-80): 189 % of control | T/C (dose: 1.6 mg/kg/injection, schedule: Q01DX001 (ip), vehicle: saline with Tween-80): 159 % of control | T/C (dose: 2.4 mg/kg/injection, schedule: Q04DX003 (ip), vehicle: saline with Tween-80): 117 % of control | T/C (dose: 3.2 mg/kg/injection, schedule: Q01DX001 (ip), vehicle: saline with Tween-80): 189 % of control

N=C(N)SCCCCCCCCCCSC(=N)N
T/C [1]: 97 % of control | T/C [2]: 123 % of control

[NH-]S(=O)(=O)O.[NH-]S(=O)(=O)O.[NH2-].[NH2-].[Pt+4]
T/C (dose: 10.0 mg/kg/injection, schedule: Q01DX009 (ip), vehicle: saline with Tween-80): 90 % of control | T/C (dose: 10.0 mg/kg/injection, schedule: Q04DX003 (ip), vehicle: saline): 100 % of control | T/C (dose: 20.0 mg/kg/injection, schedule: Q01DX009 (ip), vehicle: saline with Tween-80): 100 % of control | T/C (dose: 20.0 mg/kg/injection, schedule: Q04DX003 (ip), vehicle: saline): 100 % of control | T/C (dose: 40.0 mg/kg/injection, schedule: Q01DX009 (ip), vehicle: saline with Tween-80): 90 % of control | T/C (dose: 40.0 mg/kg/injection, schedule: Q04DX003 (ip), vehicle: saline): 108 % of control

CCOC(CN1CCN(CC(C)C(=O)c2ccccc2)CC1)c1ccccc1 (stereo not given)
T/C [2]: 109 % of control | T/C [4]: 118 % of control

[N-]=[N+]=C1C(=O)NN=C1c1ccccc1
T/C (dose: 25.0 mg/kg/injection, schedule: Q04DX003 (ip), vehicle: Klucel (hydroxypropylcellulose) (HPC)): 104 % of control | T/C (dose: 50.0 mg/kg/injection, schedule: Q04DX003 (ip), vehicle: Klucel (hydroxypropylcellulose) (HPC)): 114 % of control | T/C (dose: 100.0 mg/kg/injection, schedule: Q04DX003 (ip), vehicle: Klucel (hydroxypropylcellulose) (HPC)): 95 % of control

Nc1ccc(C(=O)CC(C(=O)O)c2ccccc2)cc1 (stereo not given)
T/C (dose: 100.0 mg/kg/injection, schedule: Q04DX002 (ip), vehicle: saline with Tween-80): 88 % of control | T/C (dose: 200.0 mg/kg/injection, schedule: Q04DX002 (ip), vehicle: saline with Tween-80): 90 % of control | T/C (dose: 400.0 mg/kg/injection, schedule: Q04DX002 (ip), vehicle: saline with Tween-80): 99 % of control

NC(=S)N/N=C/c1ccccc1N
T/C (dose: 100.0 mg/kg/injection, schedule: Q01DX001 (ip), vehicle: Klucel (hydroxypropylcellulose) (HPC)): 104 % of control | T/C (dose: 200.0 mg/kg/injection, schedule: Q01DX001 (ip), vehicle: Klucel (hydroxypropylcellulose) (HPC)): 104 % of control | T/C (dose: 400.0 mg/kg/injection, schedule: Q01DX001 (ip), vehicle: Klucel (hydroxypropylcellulose) (HPC)): 108 % of control

Cn1c(/N=C(/N)N=C(N)N)cc(=O)n(C)c1=O
T/C (dose: 50.0 mg/kg/injection, schedule: Q04DX003 (ip), vehicle: saline): 104 % of control | T/C (dose: 100.0 mg/kg/injection, schedule: Q04DX003 (ip), vehicle: saline): 100 % of control | T/C (dose: 200.0 mg/kg/injection, schedule: Q04DX003 (ip), vehicle: saline): 95 % of control

CCN1C(=O)Nc2ccc(Cl)cc2C1(O)c1ccccc1 (stereo not given)
T/C [2]: 97 % of control | T/C [6]: 97 % of control

Nc1ncc(C2OC(CO)C(O)C2O)c(=O)[nH]1 (stereo not given)
T/C (dose: 16.0 mg/kg/injection, schedule: Q01DX005 (ip), vehicle: saline): 123 % of control | T/C (dose: 128.0 mg/kg/injection, schedule: Q01DX005 (ip), vehicle: saline): 150 % of control

O=C(O)c1cc(B(O)O)[nH]n1
T/C (dose: 50.0 mg/kg/injection, schedule: Q01DX001 (ip), vehicle: saline sonified): 104 % of control | T/C (dose: 100.0 mg/kg/injection, schedule: Q01DX001 (ip), vehicle: saline sonified): 100 % of control | T/C (dose: 200.0 mg/kg/injection, schedule: Q01DX001 (ip), vehicle: saline sonified): 100 % of control
